From US20240174618A1, “SUBSTITUTED (2-HETEROARYLOXYPHENYL)SULFONATES, SALTS THEREOF AND THEIR USE AS HERBICIDAL AGENTS” (Bayer Aktiengesellschaft, priority 2021, published 2024)

What was measured:
Type in all cases: in vivo
[1] = test system: Abutilon theophrasti (ABUTH); assay: A. Herbicidal pre-emergence efficacy, ABUTH; conditions: 1280 g/ha; scored visually after about 3 weeks vs untreated controls
Summary of the method: (§1)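 Pre-emergence soil-surface spray in sandy loam pots, WP/EC in water plus 0.5% additive, 600 L/ha. Visual % damage rating after about 3 weeks in greenhouse vs. untreated; 0% = control-like, 100% = dead plants. Rates up to 1280 g/ha.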

[2] = test system: Digitaria sanguinalis (DIGSA); assay: A. Herbicidal pre-emergence efficacy, DIGSA; conditions: scored visually after about 3 weeks vs untreated controls
Summary of the method: as §1

[3] = test system: Echinochloa crus-galli (ECHCG); assay: A. Herbicidal pre-emergence efficacy, ECHCG; conditions: 1280 g/ha; scored visually after about 3 weeks vs untreated controls
Summary of the method: as §1

[4] = test system: Kochia scoparia (KCHSC); assay: A. Herbicidal pre-emergence efficacy, KCHSC; conditions: pre-emergence
Summary of the method: as §1

[5] = test system: Poa annua (POAAN); assay: A. Herbicidal pre-emergence efficacy, POAAN
Summary of the method: as §1

[6] = test system: Setaria viridis (SETVI); assay: A. Herbicidal pre-emergence efficacy, SETVI
Summary of the method: as §1

[7] = test system: Stellaria media (STEME); assay: A. Herbicidal pre-emergence efficacy, STEME
Summary of the method: as §1

[8] = test system: Veronica persica (VERPE); assay: A. Herbicidal pre-emergence efficacy, VERPE
Summary of the method: as §1

[9] = test system: Amaranthus retroflexus (AMARE); assay: A. Herbicidal pre-emergence efficacy, AMARE
Summary of the method: as §1

[10] = test system: Abutilon theophrasti (ABUTH); assay: B. Herbicidal post-emergence efficacy, ABUTH; conditions: rated visually after about 3 weeks
Summary of the method: (§2)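 Weeds grown in sandy loam in greenhouse pots, sprayed at one-leaf stage (2–3 weeks after sowing) with WP or EC formulations as aqueous suspension/emulsion plus 0.5% additive at 600 L/ha water, rates up to 1280 g/ha. Visual efficacy rated about 3 weeks later versus untreated controls (0% = like control, 100% = dead).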

[11] = test system: Digitaria sanguinalis (DIGSA); assay: B. Herbicidal post-emergence efficacy, DIGSA; conditions: rated visually after about 3 weeks
Method: (§3) Seeds of mono- and dicotyledonous weed plants were placed in plastic pots in sandy loam soil (doubly sown with in each case one species of mono- or dicotyledonous weed plants per pot), covered with soil and cultivated in a greenhouse under controlled growth conditions. 2 to 3 weeks after sowing, the test plants were treated at the one-leaf stage. The compounds of the invention, formulated in the form of wettable powders (WP) or as emulsion concentrates (EC), were applied onto the green parts of the plants as aqueous suspension or emulsion with addition of 0.5% additive at a water application rate of 600 liters per hectare (converted). After the test plants had been kept in the greenhouse under optimum growth conditions for about 3 weeks, the activity of the preparations was rated visually in comparison to untreated controls.
(§4) For example, • 100% efficacy=plants have died, • 0% efficacy=like untreated control plants
(§5) Tables B1a to B12c below show the effects of selected inventive compounds of the general formula (I) according to table 1 on various harmful plants at an application rate corresponding to 1280 g/ha or less, which were obtained by the experimental procedure mentioned above.

[12] = test system: Echinochloa crus-galli (ECHCG); assay: B. Herbicidal post-emergence efficacy, ECHCG; conditions: 1280 g/ha, rated visually after about 3 weeks
Summary of the method: as §2

[13] = test system: Kochia scoparia (KCHSC); assay: B. Herbicidal post-emergence efficacy, KCHSC; conditions: for Post-emergence efficacy against KCHSC in %: rated visually after about 3 weeks; for Post-emergence efficacy against KCHSC: 1280 g/ha
Summary of the method: as §2

[14] = test system: Setaria viridis (SETVI); assay: B. Herbicidal post-emergence efficacy, SETVI; conditions: 1280 g/ha
Method: as §3, §4, §5

[15] = test system: Stellaria media (STEME); assay: B. Herbicidal post-emergence efficacy, STEME
Summary of the method: as §2

[16] = test system: Veronica persica (VERPE); assay: B. Herbicidal post-emergence efficacy, VERPE
Summary of the method: as §2

[17] = test system: Amaranthus retroflexus (AMARE); assay: B. Herbicidal post-emergence efficacy, AMARE
Summary of the method: as §2

[18] = test system: Poa annua (POAAN); assay: B. Herbicidal post-emergence efficacy, POAAN; conditions: 1280 g/ha
Summary of the method: as §2

| SMILES | Pre-emergence efficacy against ABUTH [1] [%] | Pre-emergence efficacy against DIGSA ([2]; 320 g/ha) [%] | Pre-emergence efficacy against DIGSA ([2]; 1280 g/ha) [%] | Pre-emergence efficacy against ECHCG [3] [%] | Pre-emergence efficacy against KCHSC ([4]; dosage 320 g/ha) [%] | Pre-emergence efficacy against KCHSC ([4]; dosage 1280 g/ha) [%] | Pre-emergence efficacy against POAAN ([5]; dosage 1280 g/ha) [%] | Pre-emergence efficacy against SETVI ([6]; dosage 320 g/ha) [%] | Pre-emergence efficacy against SETVI ([6]; dosage 1280 g/ha) [%] | Pre-emergence efficacy against STEME ([7]; dosage 320 g/ha) [%] | Pre-emergence efficacy against STEME ([7]; dosage 1280 g/ha) [%] | Pre-emergence efficacy against VERPE in % ([8]; 320 g/ha) [%] | Pre-emergence efficacy against VERPE in % ([8]; 1280 g/ha) [%] | Pre-emergence efficacy against AMARE in % ([9]; 80 g/ha) [%] | Pre-emergence efficacy against AMARE in % ([9]; 320 g/ha) [%] | Pre-emergence efficacy against AMARE in % ([9]; 1280 g/ha) [%] | Post-emergence efficacy against ABUTH in % ([10]; 320 g/ha) [%] | Post-emergence efficacy against ABUTH in % ([10]; 1280 g/ha) [%] | Post-emergence efficacy against DIGSA in % ([11]; 1280 g/ha) [%] | Post-emergence efficacy against ECHCG in % [12] [%] | other results |
| --- | --- | --- | --- | --- | --- | --- | --- | --- | --- | --- | --- | --- | --- | --- | --- | --- | --- | --- | --- | --- | --- |
| N#Cc1cccc(Oc2ncc(Cl)cn2)c1OS(=O)(=O)CC1CC(F)(F)C1 [Example I-79] | 90 | 100 | 100 | 90 | 90 | 100 | 90 | 90 | 100 | 90 | 100 | 100 | 100 | 90 | 100 | 100 | 90 | 100 | 100 | 100 | Post-emergence efficacy against DIGSA in % ([11]; 320 g/ha): 90%; Post-emergence efficacy against KCHSC in % ([13]; 80 g/ha): 90%; Post-emergence efficacy against KCHSC in % ([13]; 320 g/ha): 100%; Post-emergence efficacy against KCHSC [13]: 100%; Post-emergence efficacy against SETVI [14]: 90%; Post-emergence efficacy against STEME ([15]; 80 g/ha): 90%; Post-emergence efficacy against STEME ([15]; 320 g/ha): 100%; Post-emergence efficacy against STEME ([15]; 1280 g/ha): 100%; Post-emergence efficacy against VERPE ([16]; 80 g/ha): 100%; Post-emergence efficacy against VERPE ([16]; 320 g/ha): 100%; Post-emergence efficacy against VERPE ([16]; 1280 g/ha): 100%; Post-emergence efficacy against AMARE ([17]; 80 g/ha): 90%; Post-emergence efficacy against AMARE ([17]; 320 g/ha): 100%; Post-emergence efficacy against AMARE ([17]; 1280 g/ha): 100% |
| N#Cc1cccc(Oc2ncc(Cl)cn2)c1OS(=O)(=O)CCCCl [Example I-80] | 90 | 90 | 100 | 90 | 90 | 100 | 90 | 90 | 100 | 100 | 100 | 90 | 100 | 90 | 90 | 100 | 90 | 100 | 90 | 100 | Pre-emergence efficacy against POAAN ([5]; dosage 320 g/ha): 90%; Post-emergence efficacy against ABUTH in % ([10]; 80 g/ha): 90%; Post-emergence efficacy against KCHSC in % ([13]; 320 g/ha): 90%; Post-emergence efficacy against KCHSC [13]: 90%; Post-emergence efficacy against POAAN [18]: 90%; Post-emergence efficacy against SETVI [14]: 90%; Post-emergence efficacy against STEME ([15]; 80 g/ha): 90%; Post-emergence efficacy against STEME ([15]; 320 g/ha): 100%; Post-emergence efficacy against STEME ([15]; 1280 g/ha): 100%; Post-emergence efficacy against VERPE ([16]; 80 g/ha): 90%; Post-emergence efficacy against VERPE ([16]; 320 g/ha): 90%; Post-emergence efficacy against VERPE ([16]; 1280 g/ha): 100%; Post-emergence efficacy against AMARE ([17]; 80 g/ha): 100%; Post-emergence efficacy against AMARE ([17]; 320 g/ha): 100%; Post-emergence efficacy against AMARE ([17]; 1280 g/ha): 100% |
